In the NIST ThermoML archive (doi:10.1021/je060382+):
Several values for one entry are separate records, joined by “and”; a condition that tells them apart may be missing. Identical values can stand only once. ± gives the expanded uncertainty stated by the source.

Columns and labels:
[1] = Liquid; for viscosity: Falling or rolling sphere viscometry
[2] = refractive index (Na D-line) (dimensionless); conditions: 293.1 K; 101.33 kPa; Liquid; Standard Abbe refractometry

CC(C)CCCCCCCOC(=O)c1ccccc1C(=O)OCCCCCCCC(C)C
[1]
Conditions | mass density | viscosity
273.15 K, 101.33 kPa | 980.73 ± 0.45 kg/m3 and 980.75 ± 0.11 kg/m3 | 627.6 ± 56 mPa·s and 664.5 ± 60 mPa·s
278.15 K, 101.33 kPa | 977.12 ± 0.12 kg/m3 | 393.5 ± 30 mPa·s and 410.8 ± 32 mPa·s and 410.5 ± 32 mPa·s
283.15 K, 101.33 kPa | 973.48 ± 0.46 kg/m3 and 973.49 ± 0.12 kg/m3 | 255.2 ± 17 mPa·s and 266.8 ± 18 mPa·s
288.15 K, 101.33 kPa | 969.89 ± 0.12 kg/m3 | 170.9 ± 9.8 mPa·s and 178.6 ± 10 mPa·s
293.15 K, 101.33 kPa | 966.37 ± 0.47 kg/m3 and 966.38 ± 0.13 kg/m3 and 966.37 ± 0.13 kg/m3 | 123.5 ± 6.3 mPa·s [middle of 5 runs]
293.15 K, 19400 kPa | – | 202.4 ± 12 mPa·s
293.15 K, 39700 kPa | – | 335 ± 25 mPa·s
293.15 K, 59500 kPa | – | 534.5 ± 45 mPa·s
293.15 K, 103600 kPa | – | 1435.6 ± 160 mPa·s
293.15 K, 118200 kPa | – | 1981.5 ± 250 mPa·s
293.15 K, 118900 kPa | – | 2033.8 ± 260 mPa·s
293.15 K, 159600 kPa | – | 4719.2 ± 720 mPa·s
298.15 K, 101.33 kPa | 962.83 ± 0.47 kg/m3 and 962.84 ± 0.13 kg/m3 | 87.7 ± 4 mPa·s and 84.1 ± 3.8 mPa·s and 88.4 ± 4 mPa·s
298.15 K, 25400 kPa | – | 165.5 ± 9.3 mPa·s
298.15 K, 50700 kPa | – | 300.2 ± 21 mPa·s
298.15 K, 75500 kPa | – | 525 ± 44 mPa·s
298.15 K, 100600 kPa | – | 904.7 ± 89 mPa·s
303.15 K, 101.33 kPa | 959.31 ± 0.48 kg/m3 and 959.29 ± 0.48 kg/m3 and 959.3 ± 0.14 kg/m3 | 65 ± 2.8 mPa·s [middle of 4 runs]
308.15 K, 101.33 kPa | – | 48.9 ± 2.1 mPa·s [middle of 4 runs]
313.15 K, 100 kPa | – | 37.6 ± 3.7 mPa·s and 36.8 ± 3.8 mPa·s
313.15 K, 101.33 kPa | 952.2 ± 0.49 kg/m3 and 952.21 ± 0.14 kg/m3 | 37.5 ± 1.6 mPa·s [middle of 4 runs]
313.15 K, 700 kPa | – | 38.3 ± 1.8 mPa·s
313.15 K, 25000 kPa | – | 65.4 ± 6.3 mPa·s and 63.9 ± 5.3 mPa·s
313.15 K, 25800 kPa | – | 66 ± 2.9 mPa·s
313.15 K, 50000 kPa | – | 109.4 ± 12 mPa·s and 107 ± 12 mPa·s
313.15 K, 50600 kPa | – | 110.3 ± 5.4 mPa·s
313.15 K, 75500 kPa | – | 181 ± 10 mPa·s
313.15 K, 100000 kPa | – | 290 ± 47 mPa·s and 271 ± 44 mPa·s and 273 ± 44 mPa·s
313.15 K, 100300 kPa | – | 291.6 ± 20 mPa·s
313.15 K, 125100 kPa | – | 463.2 ± 37 mPa·s
313.15 K, 150400 kPa | – | 732.6 ± 70 mPa·s
313.15 K, 175800 kPa | – | 1143.6 ± 120 mPa·s
313.15 K, 197600 kPa | – | 1680 ± 200 mPa·s
313.15 K, 200000 kPa | – | 1580 ± 250 mPa·s and 1665 ± 260 mPa·s and 1530 ± 300 mPa·s
313.15 K, 227900 kPa | – | 2671.7 ± 360 mPa·s
313.15 K, 252000 kPa | – | 3750 ± 770 mPa·s and 3932.3 ± 580 mPa·s
313.15 K, 300000 kPa | – | 8110 ± 1700 mPa·s and 7270 ± 1600 mPa·s
313.15 K, 400000 kPa | – | 36300 ± 9800 mPa·s and 33700 ± 9100 mPa·s
313.15 K, 500000 kPa | – | 168000 ± 53000 mPa·s and 158000 ± 49000 mPa·s
313.15 K, 600000 kPa | – | 782000 ± 280000 mPa·s and 694000 ± 250000 mPa·s
313.15 K, 700000 kPa | – | 3820000 ± 1.6e+06 mPa·s and 3410000 ± 1.4e+06 mPa·s
313.15 K, 800000 kPa | – | 2.36e+07 ± 1.1e+07 mPa·s and 1.98e+07 ± 8.7e+06 mPa·s
323.15 K, 101.33 kPa | 945.12 ± 0.5 kg/m3 and 945.13 ± 0.15 kg/m3 | 23 ± 1 mPa·s and 23.7 ± 1 mPa·s
333.15 K, 101.33 kPa | 938.05 ± 0.51 kg/m3 and 938.07 ± 0.16 kg/m3 | 15.9 ± 0.7 mPa·s [middle of 4 runs]
338.15 K, 100 kPa | – | 13.2 ± 1.3 mPa·s and 13.08 ± 1.4 mPa·s
338.15 K, 101.33 kPa | – | 13.3 ± 0.6 mPa·s and 13.2 ± 0.5 mPa·s and 13 ± 0.5 mPa·s
338.15 K, 500 kPa | – | 13.3 ± 0.6 mPa·s
338.15 K, 25000 kPa | – | 20.2 ± 2.3 mPa·s
338.15 K, 30500 kPa | – | 22.7 ± 1 mPa·s
338.15 K, 50000 kPa | – | 30.7 ± 3.8 mPa·s and 31.1 ± 3.8 mPa·s
338.15 K, 60700 kPa | – | 37.8 ± 1.6 mPa·s
338.15 K, 90600 kPa | – | 60.9 ± 2.9 mPa·s
338.15 K, 99500 kPa | – | 70.9 ± 3.4 mPa·s
338.15 K, 100000 kPa | – | 67.7 ± 10 mPa·s and 69.4 ± 9.8 mPa·s
338.15 K, 120500 kPa | – | 96.3 ± 5 mPa·s
338.15 K, 150100 kPa | – | 149.6 ± 8.8 mPa·s
338.15 K, 180400 kPa | – | 229.2 ± 16 mPa·s
338.15 K, 200000 kPa | – | 291 ± 56 mPa·s and 286 ± 53 mPa·s and 299 ± 54 mPa·s
338.15 K, 200600 kPa | – | 307.8 ± 23 mPa·s
338.15 K, 250700 kPa | – | 614.9 ± 58 mPa·s
338.15 K, 275600 kPa | – | 856.5 ± 85 mPa·s
338.15 K, 300000 kPa | – | 1131 ± 260 mPa·s [middle of 4 runs]
338.15 K, 301000 kPa | – | 1203.7 ± 130 mPa·s
338.15 K, 321800 kPa | – | 1571 ± 180 mPa·s
338.15 K, 352700 kPa | – | 2381 ± 310 mPa·s
338.15 K, 370500 kPa | – | 2998.7 ± 410 mPa·s
338.15 K, 394000 kPa | – | 3890 mPa·s
338.15 K, 394400 kPa | – | 4005.5 ± 590 mPa·s
338.15 K, 500000 kPa | – | 14200 ± 5700 mPa·s and 13100 ± 5400 mPa·s
338.15 K, 1000000 kPa | – | 7420000 ± 3e+06 mPa·s and 6141000 ± 2.5e+06 mPa·s
343.15 K, 101.33 kPa | 930.99 ± 0.53 kg/m3 and 931.01 ± 0.16 kg/m3 | 11.2 ± 0.5 mPa·s [middle of 4 runs]
348.15 K, 101.33 kPa | – | 9.63 ± 0.4 mPa·s and 9.65 ± 0.4 mPa·s
348.15 K, 11100 kPa | – | 11.7 ± 0.5 mPa·s
348.15 K, 26500 kPa | – | 15.1 ± 0.6 mPa·s
348.15 K, 52600 kPa | – | 22.9 ± 1 mPa·s
348.15 K, 78900 kPa | – | 33.7 ± 1.4 mPa·s
348.15 K, 81000 kPa | – | 35 ± 1.5 mPa·s
348.15 K, 105700 kPa | – | 49.67 ± 2.1 mPa·s
348.15 K, 124200 kPa | – | 65.18 ± 2.8 mPa·s
348.15 K, 125700 kPa | – | 66 ± 2.8 mPa·s
348.15 K, 149800 kPa | – | 92 ± 4.2 mPa·s
348.15 K, 175700 kPa | – | 130.3 ± 6.7 mPa·s
348.15 K, 202300 kPa | – | 186.52 ± 11 mPa·s
348.15 K, 225400 kPa | – | 250 ± 16 mPa·s
348.15 K, 274700 kPa | – | 467.3 ± 38 mPa·s
348.15 K, 275700 kPa | – | 472.3 ± 38 mPa·s
348.15 K, 324900 kPa | – | 866.8 ± 85 mPa·s
348.15 K, 372500 kPa | – | 1541.5 ± 180 mPa·s
353.15 K, 101.33 kPa | 923.95 ± 0.54 kg/m3 and 923.98 ± 0.17 kg/m3 and 923.97 ± 0.17 kg/m3 | 8.12 ± 0.34 mPa·s and 8.35 ± 0.34 mPa·s
363.15 K, 101.33 kPa | 916.91 ± 0.55 kg/m3 and 916.94 ± 0.18 kg/m3 | –
373.15 K, 100 kPa | – | 4.67 ± 0.59 mPa·s and 4.7 ± 0.59 mPa·s
373.15 K, 25000 kPa | – | 6.73 ± 0.88 mPa·s and 6.86 ± 0.69 mPa·s
373.15 K, 50000 kPa | – | 9.66 ± 1.3 mPa·s and 9.77 ± 1.4 mPa·s
373.15 K, 100000 kPa | – | 18 ± 2.9 mPa·s and 18.5 ± 3 mPa·s
373.15 K, 200000 kPa | – | 56.6 ± 13 mPa·s and 57.8 ± 12 mPa·s
373.15 K, 300000 kPa | – | 163 ± 52 mPa·s and 166 ± 50 mPa·s and 165 ± 50 mPa·s
373.15 K, 400000 kPa | – | 453 ± 200 mPa·s [middle of 4 runs]

Conditions | mass density [kg/m3]
[1], 293.1 K, 101.33 kPa, Vibrating tube method | 967.6 ± 6.5

Conditions | refractive index
[2] | 1.4849 ± 0.0012
